The target of experiment [1] is T1, S1P3 (Homo sapiens, UniProt Q99500). Kind of experiment: Method B: Receptor [35S] GTPγS SPA Binding Assay, S1P3. Details: expressed in transfected cells; host or cells: CHO cells. The experiment is classed as biochemical. Conditions: S1P3 transfected CHO cell membranes. As to the method: Method B: Receptor [^35S] GTPγS SPA Binding Assays
Membranes prepared from S1P1 or S1P3 transfected CHO cells (2 μg protein) were incubated in 96-well white plates (CORNING® 3693) with test compounds diluted in DMSO, in 50 μl of reaction mixture containing 7.5 μA WGA-PVT beads (20 mg/ml), and 5 μM GDP, 20 mM HEPES pH 7.4, 100 mM NaCl, 1 mM EDTA, 5 mM MgCl2, 10 μg/ml saponin, 0.1% BSA, and 1 μM leupeptin. The assay was initiated with the addition of […] of 0.2 nM [^35S]-GTPγS (1250 Ci/mmol; NEN) in assay buffer. After 90 min incubation at room temperature, spin the plate at 1000 rpm for 5 min. The bound radionuclides were measured at TOPCOUNT®, expressed as % response relative to S1P (1 μM) activation. Data was analyzed using the four parameter logistic equation in Excel. The four parameters in the equation, Y=A+((B−A)/(1+((EC50/X)^D))), are described as following: A is the Y value (agonist activity) at the bottom plateau; B is the Y value at the top plateau; EC50 is the X value (agonist concentration) when the response is halfway between bottom and top; D is Hill coefficient. Curves were not generated for compounds having Ymax values were below 50%.
(§1) Compounds of the present invention and Comparative Compound A were tested in the Receptor [^35S] GTPγS Binding Assays (Method A) and Receptor [^35S] In some instances, the value is an average of multiple experiments where N is the number of experiments conducted that provided satisfactory dose response curves. When more than one batch of an example was tested, the value presented is from a batch which allowed a comparison of GTPγS S1P1 and GTPγS S1P3 in which the most number of experiments were performed. Preferably, the same batch was examined in Method A and Method B. Data was not averaged across different batches of an example compound.
In general terms: GTPγS is a poorly hydrolysed GTP analogue; its binding reports G protein activation.

In the next experiment the test system is circulating lymphocytes. Kind of experiment: Blood Lymphocyte Reduction Assay (BLR) in rats. Type of experiment: in vivo, Lewis rats. As to conditions: oral. The protocol: Blood Lymphocyte Reduction Assay (BLR) in Rodents
Lewis rats or BALB/c mice were dosed orally with test article (as a solution or suspension in the vehicle) or vehicle alone (polyethylene glycol 300, “PEG300”). Blood was drawn at 4 hr and 24 h by retro-orbital bleeding. Blood lymphocyte counts were determined on an ADVIA 120 Hematology Analyzer (Siemens Healthcare Diagnostics). The results were measured as a reduction in the percentage of circulating lymphocytes as compared to the vehicle treated group at the 4 hr and 24 hr measurement. The results represent the average results of all animals within each treatment group (n=3-4).
Compounds of the present invention were tested in the Blood Lymphocyte Reduction assay (BLR) described hereinabove and the results are shown in Table D for rats and Table E for mice.

Experiment [2] has as its target T1, S1P3. As to the kind of experiment: Method A: Receptor [35S] GTPγS Binding Assay, S1P3. The experiment is classed as biochemical. Also on record: expressed in transfected cells. As to conditions: EDG3-Gal5-bla HEK293T cell membranes. The protocol: Method A: Receptor [35S] GTPγS Binding Assays
Compounds were loaded in a 384 FALCON® v-bottom plate (0.5 μl/well in a 3-fold dilution). Membranes prepared from S1P1/CHO cells or EDG3-Gal5-bla HEK293T cells were added to the compound plate (40 μl/well, final protein 3 μg/well) with MULTIDROP®. [^35S]GTP (1250 Ci/mmol, Perkin Elmer) was diluted in assay buffer: 20 mM HEPES, pH7.5, 10 mM MgCl2, 150 mM NaCl, 1 mM EGTA, 1 mM DTT, 10 μM GDP, 0.1% fatty acid free BSA, and 10 μg/ml Saponin to 0.4 nM. 40 μl of the [^35S] GTP solution was added to the compound plate with a final concentration of 0.2 nM. The reaction was kept at room temperature for 45 min. At the end of incubation, all the mixtures in the compound plate were transferred to a 384 well FB filter plates via GPCR robot system. The filter plate was washed with water 4 times by using the modified manifold Embla plate washer and dried at 60° C. for 45 min. 30 μA of MicroScint 20 scintillation fluid was added to each well for counting at Packard TOPCOUNT®. EC50 is defined as the agonist concentration that corresponds to 50% of the Ymax (maximal response) obtained for each individual compound tested.
as §1

For another experiment, the target named is T2, S1P1 (Homo sapiens, UniProt P21453).
T2 construct: expressed in transfected cells; host or cells: CHO cells
T2 sequence (P21453 whole entry): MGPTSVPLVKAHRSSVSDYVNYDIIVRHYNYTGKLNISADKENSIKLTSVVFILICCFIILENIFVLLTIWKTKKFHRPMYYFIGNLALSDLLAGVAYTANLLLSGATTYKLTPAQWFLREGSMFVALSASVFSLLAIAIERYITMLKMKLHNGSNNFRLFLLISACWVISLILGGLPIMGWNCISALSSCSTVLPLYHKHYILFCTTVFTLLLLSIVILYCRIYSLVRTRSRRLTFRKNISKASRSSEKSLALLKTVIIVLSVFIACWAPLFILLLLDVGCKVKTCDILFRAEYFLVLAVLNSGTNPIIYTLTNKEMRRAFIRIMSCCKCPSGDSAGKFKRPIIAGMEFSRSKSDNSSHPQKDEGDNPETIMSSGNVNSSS
Kind of experiment: S1P1 Binding Assay (33P-S1P competition, CHO membranes). As to conditions: membranes of CHO cells expressing human S1P1, 33P-S1P ligand; read-out: S1P1 B IC50. As to the method:
Membranes were prepared from CHO cells expressing human S1P1. Cells were dissociated in buffer containing 20 mM HEPES, pH 7.5, 50 mM NaCl, 2 mM EDTA and Protease Inhibitor cocktail (Roche), and disrupted on ice using the Polytron homogenizer. The homogenate was centrifuged at 20,000 rpm (48,000 g) and the supernatant was discarded. The membrane pellets were resuspended in buffer containing 50 mM HEPES, pH 7.5, 100 mM NaCl, 1 mM MgCl2, 2 mM EDTA and stored in aliquots at −80° C. after protein concentration determination.
Membranes (2 μg/well) and 0.03 nM final concentration of ^33P-S1P ligand (1 mCi/ml, American Radiolabeled Chemicals) were added to the compound plates. Binding was performed for 60 min at room temperature, terminated by collecting the membranes onto GF/B filter plates, and radioactivity was measured by TOPCOUNT®. The competition data of the test compounds over a range of concentrations was plotted as percentage inhibition of radioligand specific binding. The IC50 is defined as the concentration of competing ligand needed to reduce specific binding by 50%.
Compounds of the present invention and Comparative Compound A were tested in the S1P1 binding assay described hereinabove and the results rounded to two digits, shown in Table A were obtained. In some instances, the value is an average of multiple experiments where N is the number of experiments conducted that provided satisfactory dose response curves. When more than one batch of an example was tested, the value presented is from the batch which allowed a comparison of GTPγS S1P1 and GTPγS S1P3 in Method A (Data shown in Table B). Data was not averaged across different batches of an example compound.

SMILES strings stand for the structures.

T1 sequence (Q99500 whole entry): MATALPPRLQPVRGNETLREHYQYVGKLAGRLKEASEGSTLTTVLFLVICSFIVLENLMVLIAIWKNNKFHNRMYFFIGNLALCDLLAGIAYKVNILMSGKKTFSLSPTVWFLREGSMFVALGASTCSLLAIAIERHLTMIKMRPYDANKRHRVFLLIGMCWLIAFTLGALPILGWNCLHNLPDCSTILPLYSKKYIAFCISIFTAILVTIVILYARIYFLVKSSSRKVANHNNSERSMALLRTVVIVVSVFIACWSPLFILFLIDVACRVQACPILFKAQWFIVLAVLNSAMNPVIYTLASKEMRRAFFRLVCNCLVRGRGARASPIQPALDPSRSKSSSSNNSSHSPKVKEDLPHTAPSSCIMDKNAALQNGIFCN

As to `O=C(O)C1CN(Cc2ccc(-c3noc(-c4cnn(-c5ccccn5)c4C(F)(F)F)n3)cc2)C1` [Example 1, 1-(4-(5-(1-(Pyridin-2-yl)-5-(trifluoromethyl)-1H-pyrazol-4-yl)-1,2,4-oxadiazol-3-yl)benzyl)azetidine-3-carboxylic acid], the results for the EC50 on S1P3 [1] and on S1P3 [2] were 4.4 µM and 6.7 µM, respectively. In addition, the “% reduction in lymphocytes at 4 hr.” value in the experiment on circulating lymphocytes (0.04 mg/kg) came to 49%; with circulating lymphocytes (0.2 mg/kg) it was 77%; in the experiment on circulating lymphocytes (1.0 mg/kg), 86%; with circulating lymphocytes (3.0 mg/kg), 81%. In addition, the “% reduction in lymphocytes at 24 hr.” value in the experiment on circulating lymphocytes (0.04 mg/kg) worked out at 6%; with circulating lymphocytes (0.2 mg/kg), 15%; with circulating lymphocytes (1.0 mg/kg), 61%; with circulating lymphocytes (3.0 mg/kg), 75%. In addition, the IC50 (usually the concentration needed to halve the response being measured) on S1P1 was 0.0004 µM.

These data come from patent US8389509B2, “Substituted pyrazole compounds” (Bristol-Myers Squibb Company, priority 2009, dated 2013).
